Experimental data published in US4179514A, “Ketoalkanesulfenyl and ketoalkanethiosulfenyl carbamates” (priority 1978, dated 1979).

Tests used:
Type in all cases: in vivo
[1] = peroral toxicity to mammals (rat); settings: in vivo, po, dose required to achieve mortality rate of 50 percent, read-out: A.O. RAT LD50
Protocol: (§1) Certain of these compositions were also evaluated to determine their peroral toxicity to mammals. The animal selected for this experiment was the rat. The test results obtained are expressed in terms of the number of milligrams of compositions per kilogram of weight of the animal required to achieve a mortality rate of 50 percent (LD50).

[2] = system: root-knot nematode, Meloidogyne incognita var. acrita; assay: Nematocide Test; design: key: 1: severe galling, equal to untreated plants; 2: moderate galling; 3: light galling; 4: very light galling; 5: no galling, perfect control; settings: 3.33 m.g. of test compound per jar; cucumber, approximately 3 weeks
Protocol: The test organism used was the infective migratory larvae of the root-knot nematode, Meloidogyne incognita var. acrita, reared in the greenhouse on roots of cucumber plants. Infected plants were removed from the culture, and the roots are chopped very finely. A small amount of this inoculum was added to a pint jar containing approximately 180 cc. of soil. The jars were capped and incubated for one week at room temperature. During this period eggs of the nematode were hatched, and the larval forms migrated into the soil.
Ten ml. of the test formulation were added to each of the two jars for each dosage tested. Following the addition of chemical, the jars were capped, and the contents thoroughly mixed on a ball mill for 5 minutes.
The test compounds were formulated by a standard procedure of solution in acetone addition of an emulsifier, and dilution with water. Primary screening tests were conducted at 3.33 m.g. of the test compound per jar.
The jars were left capped at room temperature for a period of 48 hours, and the contents then transferred to 3 inch pots. Subsequently, the pots were seeded to cucumber as an indicator crop and placed in the greenhouse where they were cared for in the normal fashion for approximately 3 weeks.
The cucumber plants were then taken from the pots, the soil removed from the roots, and the amount of galling visually rated.
In the test for activity against nematodes activity was rated as follows: […]

[3] = system: rat; assay: peroral toxicity to mammals (rat); settings: dose required to achieve mortality rate of 50 percent
Protocol: as §1

Question: Which LD50 [1] does the source give for `CSC(C)=NOC(=O)N(C)SSC(C)(C)C(=O)c1ccccc1` [1-Methylthioacetaldehyde O-[N-methyl-N-(2-benzoyl-2-propanethiosulfenyl)carbamoyl]oxime] here?
Answer: Its LD50 is 226 mg/kg.

Question: Which “NEMATODES activity rating (galling)” value [2] does the source give for `CSC(C)=NOC(=O)N(C)SSC(C)(C)C(=O)C(C)C` [1-Methylthioacetaldehyde 0-[N-methyl-N-(2,4-dimethyl-3-oxo-2-pentanethiosulfenyl)carbamoyl]oxime] here?
Answer: The value was 3.

Question: What about the LD50 [1] of the same compound?
Answer: Its LD50 is 226 mg/kg.

Question: With `CC(C)C(=O)C(C)(C)SN(C)C(=O)ON=C1CSCCS1` [2-[[O-[N-methyl-N-(2,4-dimethyl-3-oxo-2-pentanesulfenyl)carbamoyl]oximino]]-1,4-dithiane] as the compound, how does the “NEMATODES activity rating (galling)” value [2] read?
Answer: Its value is 3.

Question: For `CC(C)C(=O)C(C)(C)SN(C)C(=O)Oc1cccc2c1OC(C)(C)C2` [7-[N-methyl-N-(2,4-dimethyl-3-oxo-2-pentanesulfenyl)carbamoyloxy]-2,2-dimethyl-2,3-dihydrobenzofuran], which LD50 [1] is on record?
Answer: Its LD50 is 31 mg/kg.

Question: For `CC(=NOC(=O)N(C)SSC(C)(C)C(=O)C(C)C)SC(C)C` [1-Isopropylthioacetaldehyde 0-[N-methyl-N-(2,4-dimethyl-3-oxo-2-pentanethiosulfenyl)carbamoyl]oxime], which “NEMATODES activity rating (galling)” value [2] is on record?
Answer: Its value is 4.

Question: And the LD50 [1]?
Answer: The LD50 was 42 mg/kg.

Question: For `CC(=NOC(=O)N(C)SC(C)(C)C(=O)C(C)C)SC(C)C` [1Isopropylthioacetaldehyde O-[N-methyl-N-(2,4-dimethyl-3-oxo-2-pentanesulfenyl)carbamoyl]oxime], which “NEMATODES activity rating (galling)” value [2] is on record?
Answer: Its value is 3.

Question: And the LD50 [1]?
Answer: Its LD50 is 37 mg/kg.

Question: With `CSC(C)(C)C=NOC(=O)N(C)SC(C)(C)C(=O)C(C)C` [2-Methylthio-2-methylpropionaldehyde O-[N-methyl-N-(2,4-dimethyl-3-oxo-2-pentanesulfenyl)carbamoyl]oxmine] as the compound, how does the “NEMATODES activity rating (galling)” value [2] read?
Answer: Its value is 3.

Question: For `CC(C)C(=O)C(C)(C)SN(C)C(=O)ON=C1SC(C)(C)C(=O)N1C` [2-[O-[N-methyl-(2,4-dimethyl-3-oxo-2-pentanesulfenyl)carbamoyl]oximino]-3,5,5-trimethylthiazolidin-4-one], which LD50 [1] is on record?
Answer: The LD50 was 226 mg/kg.

Question: Which “NEMATODES activity rating (galling)” value [2] does the source give for `CN(SC(C)(C)C(=O)c1ccccc1)C(=O)ON=C1SC(C)(C)C(=O)N1C` [2-[[O-[N-methyl-N-(2-benzoyl-2-propanesulfenyl)carbamoyl]oximino]]-3,5,5-trimethylthiazolidin-4-one] here?
Answer: Its value is 3.

Question: With `CSC(C)=NOC(=O)N(C)SC(C)(C)C(=O)C(C)C` [1-Methylthioacetaldehyde O-[N-methyl-N-(2,4-dimethyl-3-oxo-2-pentanesulfenyl)carbamoyl]oxime] as the compound, how does the “NEMATODES activity rating (galling)” value [2] read?
Answer: Its value is 1.

Question: What about the LD50 [1] of the same compound?
Answer: Its LD50 is 134 mg/kg.

Question: For `CC(C)C(=O)C(C)(C)SN(C)C(=O)ON=CC(C)(C)[N+](=O)[O-]` [2-Nitro-2-methylpropionaldehyde O-[N-methyl-N-(2,4-dimethyl-3-oxo-2-pentanesulfenyl)carbamoyl]oxime], which LD50 [1] is on record?
Answer: Its LD50 is 12 mg/kg.

Question: Which “NEMATODES activity rating (galling)” value [2] does the source give for `CC(C)C(=O)C(C)(C)SN(C)C(=O)ON=C(C#N)c1ccccc1` [α-Cyanobenzaldehyde 0-[N-methyl-N-(2,4-dimethyl-3-oxo-2-pentanesulfenyl)carbamoyl]oxime] here?
Answer: Its value is 3.

Question: With “1-(2-Cyanoethylthio)acetaldehyde 0-[N-methyl-N-(2,4-dimethyl-3-oxo-2-pentanethiosulfenyl)carbamoyl]oxime” as the compound, how does the “NEMATODES activity rating (galling)” value [2] read?
Answer: Its value is 5.

Question: Which “NEMATODES activity rating (galling)” value [2] does the source give for “4-[[0-[N-Methyl-N-(2,4-dimethyl-3-oxo-2-pentanethiosulfenyl)carbamoyl]oximino]]-5-methyl-1,3-oxathiolane” here?
Answer: Its value is 3.

Question: What about the “A.O. RAT LD50” value [3] of the same compound?
Answer: Its value is 8 mg/kg.

Question: Which LD50 [1] does the source give for `CC(C)C(=O)C(C)(C)SN(C)C(=O)ON=C1SCOC1C` (centres unmarked) [4-[[O-[N-methyl-N-(2,4-dimethyl-3-oxo-2-pentanesulfenyl)carbamoyl]oximino]]-5-methyl-1,3-oxathiolane] here?
Answer: Its LD50 is 16 mg/kg.
